Assays:
BRG-1 = BRG-1 (Homo sapiens, UniProt P51532); test: ATPase catalytic activity assay (ADP-Glo), BRG-1; conditions: for Emax: 1 h, read-out: BRG1 Max % Inhibition, ADP-Glo, 30 nM BRG-1, 400 μM ATP
BRM = BRM (Homo sapiens, UniProt P51531); test: ATPase catalytic activity assay (ADP-Glo), BRM; conditions: 30 nM BRM, 400 μM ATP; for IC50: BRM ATPase: IC50 (uM)
Sequence of BRM (P51531 whole entry): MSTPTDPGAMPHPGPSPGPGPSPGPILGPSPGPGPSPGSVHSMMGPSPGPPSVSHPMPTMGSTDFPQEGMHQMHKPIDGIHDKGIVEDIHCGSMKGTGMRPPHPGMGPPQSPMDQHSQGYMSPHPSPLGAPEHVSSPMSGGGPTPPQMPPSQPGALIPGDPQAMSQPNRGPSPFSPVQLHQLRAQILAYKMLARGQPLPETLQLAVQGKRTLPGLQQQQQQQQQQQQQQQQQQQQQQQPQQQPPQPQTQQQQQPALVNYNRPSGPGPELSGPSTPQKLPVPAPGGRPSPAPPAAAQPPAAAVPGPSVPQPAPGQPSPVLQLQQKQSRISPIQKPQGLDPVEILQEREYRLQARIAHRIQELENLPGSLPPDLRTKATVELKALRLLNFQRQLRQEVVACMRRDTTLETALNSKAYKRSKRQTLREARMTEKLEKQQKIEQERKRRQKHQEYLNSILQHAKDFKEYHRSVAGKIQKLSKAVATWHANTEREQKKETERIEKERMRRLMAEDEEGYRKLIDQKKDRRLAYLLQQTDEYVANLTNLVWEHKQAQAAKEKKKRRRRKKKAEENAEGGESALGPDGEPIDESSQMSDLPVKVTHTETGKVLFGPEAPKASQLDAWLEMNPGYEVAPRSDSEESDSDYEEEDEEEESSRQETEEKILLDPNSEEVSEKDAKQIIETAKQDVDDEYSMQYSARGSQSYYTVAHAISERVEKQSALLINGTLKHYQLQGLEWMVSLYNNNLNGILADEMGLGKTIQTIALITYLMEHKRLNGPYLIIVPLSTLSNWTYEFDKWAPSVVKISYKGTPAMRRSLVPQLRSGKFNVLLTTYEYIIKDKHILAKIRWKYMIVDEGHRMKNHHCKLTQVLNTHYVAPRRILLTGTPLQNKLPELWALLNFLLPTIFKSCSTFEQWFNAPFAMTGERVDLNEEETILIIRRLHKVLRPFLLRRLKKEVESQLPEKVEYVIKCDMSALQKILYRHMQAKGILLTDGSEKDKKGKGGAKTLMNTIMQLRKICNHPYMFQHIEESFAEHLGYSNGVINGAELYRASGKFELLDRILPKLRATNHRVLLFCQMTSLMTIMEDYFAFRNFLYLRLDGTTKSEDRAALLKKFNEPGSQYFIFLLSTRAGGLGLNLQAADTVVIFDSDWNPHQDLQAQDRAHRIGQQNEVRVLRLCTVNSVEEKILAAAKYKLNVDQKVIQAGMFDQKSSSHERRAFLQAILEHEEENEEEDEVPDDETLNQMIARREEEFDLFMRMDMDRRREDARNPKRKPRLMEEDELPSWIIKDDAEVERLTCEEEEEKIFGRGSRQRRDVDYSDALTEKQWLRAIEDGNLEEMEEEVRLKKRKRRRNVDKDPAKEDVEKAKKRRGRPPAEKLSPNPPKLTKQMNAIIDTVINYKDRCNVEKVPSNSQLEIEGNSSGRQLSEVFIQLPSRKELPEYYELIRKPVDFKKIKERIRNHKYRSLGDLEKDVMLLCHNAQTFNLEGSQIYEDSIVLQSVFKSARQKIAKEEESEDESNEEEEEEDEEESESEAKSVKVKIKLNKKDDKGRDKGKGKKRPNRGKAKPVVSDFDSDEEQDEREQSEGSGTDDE

Sequence of BRG-1 (P51532 whole entry): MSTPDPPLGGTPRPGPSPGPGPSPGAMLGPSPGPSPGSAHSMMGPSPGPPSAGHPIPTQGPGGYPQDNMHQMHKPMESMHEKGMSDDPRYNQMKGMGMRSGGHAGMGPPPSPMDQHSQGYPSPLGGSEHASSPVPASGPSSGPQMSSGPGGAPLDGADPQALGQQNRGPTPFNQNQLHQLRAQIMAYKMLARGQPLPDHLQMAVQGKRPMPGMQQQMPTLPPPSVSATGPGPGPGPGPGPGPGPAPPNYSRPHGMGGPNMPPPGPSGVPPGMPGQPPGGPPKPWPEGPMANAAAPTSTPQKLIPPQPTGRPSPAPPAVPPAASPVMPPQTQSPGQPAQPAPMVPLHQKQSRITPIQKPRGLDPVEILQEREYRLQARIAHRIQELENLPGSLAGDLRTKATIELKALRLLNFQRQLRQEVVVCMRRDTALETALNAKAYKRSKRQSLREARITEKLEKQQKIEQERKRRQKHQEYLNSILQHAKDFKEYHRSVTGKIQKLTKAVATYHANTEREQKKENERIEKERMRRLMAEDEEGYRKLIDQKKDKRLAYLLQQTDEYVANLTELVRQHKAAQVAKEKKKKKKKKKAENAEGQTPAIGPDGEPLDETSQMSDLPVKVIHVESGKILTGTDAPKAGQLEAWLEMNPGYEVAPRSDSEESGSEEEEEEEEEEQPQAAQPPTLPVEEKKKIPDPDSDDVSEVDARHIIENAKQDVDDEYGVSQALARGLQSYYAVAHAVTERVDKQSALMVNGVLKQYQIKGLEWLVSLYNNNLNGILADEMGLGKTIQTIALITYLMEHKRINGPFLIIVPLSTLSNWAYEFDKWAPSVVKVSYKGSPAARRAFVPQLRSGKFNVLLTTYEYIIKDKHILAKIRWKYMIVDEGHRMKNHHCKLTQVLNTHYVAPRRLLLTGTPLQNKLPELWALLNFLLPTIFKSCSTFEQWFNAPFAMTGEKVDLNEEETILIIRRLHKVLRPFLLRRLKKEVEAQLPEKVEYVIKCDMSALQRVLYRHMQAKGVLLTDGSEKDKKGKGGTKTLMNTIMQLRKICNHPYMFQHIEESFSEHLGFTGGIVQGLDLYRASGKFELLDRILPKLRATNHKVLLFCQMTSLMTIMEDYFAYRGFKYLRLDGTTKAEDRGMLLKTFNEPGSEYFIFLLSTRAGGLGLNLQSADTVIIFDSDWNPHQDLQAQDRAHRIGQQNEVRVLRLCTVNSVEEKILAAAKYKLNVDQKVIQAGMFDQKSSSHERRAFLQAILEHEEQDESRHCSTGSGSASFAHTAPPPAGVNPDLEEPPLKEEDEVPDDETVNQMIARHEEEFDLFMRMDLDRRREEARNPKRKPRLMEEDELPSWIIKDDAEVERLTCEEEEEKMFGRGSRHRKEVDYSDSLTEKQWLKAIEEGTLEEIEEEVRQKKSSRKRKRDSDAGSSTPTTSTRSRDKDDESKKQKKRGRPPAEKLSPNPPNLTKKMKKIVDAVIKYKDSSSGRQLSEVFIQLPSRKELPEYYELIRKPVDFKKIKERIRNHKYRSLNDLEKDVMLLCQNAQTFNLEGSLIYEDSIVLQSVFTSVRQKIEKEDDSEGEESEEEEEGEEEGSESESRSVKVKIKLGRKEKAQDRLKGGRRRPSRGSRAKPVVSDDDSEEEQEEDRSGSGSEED

Structure (SMILES)	IC50 (BRG-1)	Emax (BRG-1)	BRM Max % Inhibition (BRM)	IC50 (BRM)
CN(C)c1ncc(-c2ccc3cnc(CNC(=O)c4ccc5c(c4)[C@](C)(C#N)COC5)cc3n2)cn1 [Compound 472]	> 1000 nM	51%	86%	0.1 to 0.5 µM
C[C@@]1(C#N)COCc2ccc(C(=O)NCc3cc4nc(-n5cccn5)ccc4cn3)cc21 [Compound 473]	> 1000 nM	72%	96%	0.1 to 0.5 µM
CC(=O)N1CCOc2ccc(-c3ccc4cnc(CNC(=O)c5ccc6c(c5)[C@](C)(C#N)COC6)cc4n3)cc21 [Compound 475]	100 to 500 nM	98%	99%	< 0.1 µM
C[C@@]1(C#N)COCc2ccc(C(=O)NCc3cc4nc(-c5cnn(-c6ccncc6)c5)ccc4cn3)cc21 [Compound 477]	> 1000 nM	49%	88%	0.1 to 0.5 µM
C[C@@]1(C#N)COCc2ccc(C(=O)NCc3cc4nc(-c5ccc(C(F)F)nc5)ccc4cn3)cc21 [Compound 478]	500 to 1000 nM	63%	95%	0.1 to 0.5 µM
COc1cc(F)ccc1-c1ccc2cnc(CNC(=O)c3ccc4c(c3)[C@](C)(C#N)COC4)cc2n1 [Compound 481]	100 to 500 nM	95%	98%	< 0.1 µM
COc1ccncc1-c1ccc2cnc(CNC(=O)c3ccc4c(c3)[C@](C)(C#N)COC4)cc2n1 [Compound 489]	500 to 1000 nM	76%	97%	0.1 to 0.5 µM
COc1c(-c2ccc3cnc(CNC(=O)c4ccc5c(c4)[C@](C)(C#N)COC5)cc3n2)ccc2cnn(C)c12 [Compound 491]	500 to 1000 nM	76%	98%	0.1 to 0.5 µM
C[C@@]1(C#N)COCc2ccc(C(=O)NCc3cc4nc(-c5cnn6ccccc56)ccc4cn3)cc21 [Compound 493]	500 to 1000 nM	68%	96%	0.1 to 0.5 µM
C[C@@]1(C#N)COCc2ccc(C(=O)NCc3cc4cc(-c5ccccc5)ccc4nn3)cc21 [Compound 494]	100 to 500 nM	90%	99%	< 0.1 µM
C[C@@]1(C#N)COCc2ccc(C(=O)NCc3cc4nc(-c5cncc(N6CCC6)n5)ccc4cn3)cc21 [Compound 497]	< 100 nM	97%	100%	< 0.1 µM
C[C@@]1(C#N)COCc2ccc(C(=O)NCc3cc4nc(-c5cnn(-c6cccnc6)c5)ccc4cn3)cc21 [Compound 499]	> 1000 nM	29%	85%	0.1 to 0.5 µM
Cc1cc(-c2ccc3cnc(CNC(=O)c4ccc5c(c4)[C@](C)(C#N)COC5)cc3n2)n(C)n1 [Compound 501]	> 1000 nM	47%	85%	0.1 to 0.5 µM
CCOC(=O)C12CCC(CC1)N(c1ccc3cnc(CNC(=O)c4ccc5c(c4)[C@](C)(C#N)COC5)cc3n1)C2 [Compound 502]	500 to 1000 nM	70%	89%	0.1 to 0.5 µM
Cc1ccn(-c2ccc3cnc(CNC(=O)c4ccc5c(c4)[C@](C)(C#N)COC5)cc3n2)n1 [Compound 503]	> 1000 nM	72%	94%	0.1 to 0.5 µM
Cc1cnn(-c2ccc3cnc(CNC(=O)c4ccc5c(c4)[C@](C)(C#N)COC5)cc3n2)c1 [Compound 505]	500 to 1000 nM	72%	96%	0.1 to 0.5 µM
C[C@@]1(C#N)COCc2ccc(C(=O)NCc3cc4cc(-c5ccccc5)ncc4cn3)cc21 [Compound 508]	> 1000 nM	46%	90%	0.1 to 0.5 µM
Cn1cccc(-c2ccc3cnc(CNC(=O)c4ccc5c(c4)[C@](C)(C#N)COC5)cc3n2)c1=O [Compound 510]	> 1000 nM	64%	89%	0.1 to 0.5 µM
C[C@@]1(C#N)COCc2ccc(C(=O)NCc3cc4nc(-c5cnn(C6COC6)c5)ccc4cn3)cc21 [Compound 513]	> 1000 nM	36%	87%	0.1 to 0.5 µM

More lines, now with the values ahead:

IC50 (BRG-1)	Emax (BRG-1)	BRM Max % Inhibition (BRM)	IC50 (BRM)	Structure (SMILES)
> 1000 nM	53%	93%	0.1 to 0.5 µM	CN1CCN(c2cccc(-c3ccc4cnc(CNC(=O)c5ccc6c(c5)[C@](C)(C#N)COC6)cc4n3)c2)CC1 [Compound 474]
500 to 1000 nM	63%	94%	0.1 to 0.5 µM	CN1C(=O)Cc2ccc(-c3ccc4cnc(CNC(=O)c5ccc6c(c5)[C@](C)(C#N)COC6)cc4n3)cc21 [Compound 476]
500 to 1000 nM	72%	96%	0.1 to 0.5 µM	C[C@@]1(C#N)COCc2ccc(C(=O)NCc3cc4nc(-c5cccc(C6(O)COC6)c5)ccc4cn3)cc21 [Compound 479]
500 to 1000 nM	55%	90%	0.1 to 0.5 µM	COc1cncc(-c2ccc3cnc(CNC(=O)c4ccc5c(c4)[C@](C)(C#N)COC5)cc3n2)c1 [Compound 482]
500 to 1000 nM	72%	93%	0.1 to 0.5 µM	CNC(=O)c1cccc(-c2ccc3cnc(CNC(=O)c4ccc5c(c4)[C@](C)(C#N)COC5)cc3n2)c1 [Compound 483]
500 to 1000 nM	77%	96%	0.1 to 0.5 µM	C[C@@]1(C#N)COCc2ccc(C(=O)NCc3cc4nc(-c5cccc(C(=O)N6CCC6)c5)ccc4cn3)cc21 [Compound 484]
500 to 1000 nM	82%	93%	0.1 to 0.5 µM	CN1Cc2ccc(-c3ccc4cnc(CNC(=O)c5ccc6c(c5)[C@](C)(C#N)COC6)cc4n3)cc2C1=O [Compound 485]
> 1000 nM	70%	95%	0.1 to 0.5 µM	C[C@@]1(C#N)COCc2ccc(C(=O)NCc3cc4nc(N5CCn6nccc6C5)ccc4cn3)cc21 [Compound 486]
100 to 500 nM	95%	100%	< 0.1 µM	C[C@@]1(C#N)COCc2ncc(C(=O)NCc3cc4nc(-c5cc(F)cc(N6CCC6)c5)ccc4cn3)cc21 [Compound 487]
100 to 500 nM	91%	101%	< 0.1 µM	COc1ncccc1-c1ccc2cnc(CNC(=O)c3ccc4c(c3)[C@](C)(C#N)COC4)cc2n1 [Compound 488]
> 1000 nM	40%	93%	0.1 to 0.5 µM	CN(C)C(=O)c1cccc(-c2ccc3cnc(CNC(=O)c4ccc5c(c4)[C@](C)(C#N)COC5)cc3n2)c1 [Compound 490]
100 to 500 nM	91%	99%	< 0.1 µM	COc1cccc(-c2ccc3cnc(CNC(=O)c4ccc5c(c4)[C@](C)(C#N)COC5)cc3n2)n1 [Compound 492]
100 to 500 nM	88%	99%	< 0.1 µM	CN1Cc2cc(-c3ccc4cnc(CNC(=O)c5ccc6c(c5)[C@](C)(C#N)COC6)cc4n3)ccc2C1=O [Compound 495]
< 100 nM	92%	100%	< 0.1 µM	C[C@@]1(C#N)COCc2ccc(C(=O)NCc3cc4nc(-c5cccc(N6CCC6)n5)ccc4cn3)cc21 [Compound 496]
100 to 500 nM	83%	98%	0.1 to 0.5 µM	CN1C(=O)Cc2cc(-c3ccc4cnc(CNC(=O)c5ccc6c(c5)[C@](C)(C#N)COC6)cc4n3)ccc21 [Compound 498]
500 to 1000 nM	83%	95%	< 0.1 µM	C[C@@]1(C#N)COCc2ncc(C(=O)NCc3cc4nc(-c5cccc(C(F)F)c5)ccc4cn3)cc21 [Compound 500]
> 1000 nM	44%	84%	0.1 to 0.5 µM	C[C@@]1(C#N)COCc2ccc(C(=O)NCc3cc4nc(-c5cnn(C(F)F)c5)ccc4cn3)cc21 [Compound 504]
100 to 500 nM	96%	97%	< 0.1 µM	C[C@@]1(C#N)COCc2ccc(C(=O)NCc3cc4nc(-c5ccnc(N6CCC6)n5)ccc4cn3)cc21 [Compound 506]
100 to 500 nM	77%	97%	< 0.1 µM	COc1cnccc1-c1ccc2cnc(CNC(=O)c3ccc4c(c3)[C@](C)(C#N)COC4)cc2n1 [Compound 507]
500 to 1000 nM	54%	93%	0.1 to 0.5 µM	Cc1nn(C)cc1-c1ccc2cnc(CNC(=O)c3ccc4c(c3)[C@](C)(C#N)COC4)cc2n1 [Compound 509]
500 to 1000 nM	79%	96%	< 0.1 µM	C[C@@]1(C#N)COCc2ccc(C(=O)NCc3cc4cc(-c5ccccc5)cnc4cn3)cc21 [Compound 511]
500 to 1000 nM	80%	97%	< 0.1 µM	COc1cc(-c2ccc3cnc(CNC(=O)c4ccc5c(c4)[C@](C)(C#N)COC5)cc3n2)ccn1 [Compound 512]
> 1000 nM	59%	95%	0.1 to 0.5 µM	C[C@@]1(C#N)COCc2ccc(C(=O)NCc3cc4nc(N5CCCC5)ccc4cn3)cc21 [Compound 514]
500 to 1000 nM	68%	90%	0.1 to 0.5 µM	COc1c(F)cc(F)cc1-c1ccc2cnc(CNC(=O)c3ccc4c(c3)[C@](C)(C#N)COC4)cc2n1 [Compound 515]
